In US20070249548A1, “Nucleoside Analog or Salts of the Same” (GIFU UNIVERSITY, priority 2004, published 2007):
[TBDPS-acyc] = code of the source, not defined here; d = 2'-deoxy (DNA)

System: oligonucleotide made from sequence number 2
Assay: Stability of the double strand (Tm value)
Type: physicochemical
Settings: double strand with oligonucleotide of sequence number 2; annealing buffer 10 mM sodium phosphate (pH 7.0), 1 M NaCl

Substance | Tm value [°C]
Comparative Example 2: Double-stranded oligonucleotide composed of the oligonucleotides made from sequence number 3 and sequence number 2 (chain 1 AAGGAAAAGAGGAAAGA; chain 2 TCTTTCCTCTTTTCCTT; DNA, backbone not given here) | 57.7
Example 10: Double-stranded oligonucleotide analog composed of the oligonucleotide analog of sequence number 1 and the oligonucleotide of sequence number 2 (chain 1 AAGGAAAAGAGGAAAGA; chain 2 TCTTTCCTCTTTTCCTT; chain 1: sugars from the 5' end d7 [TBDPS-acyc]1 d9, backbone not given here; chain 2: DNA, backbone not given here) | 49.1
